In patent US20240390301A1, “COMBINATIONS OF PERIPHERAL 5-HT2A RECEPTOR ANTAGONISTS AND CENTRAL 5-HT2A RECEPTOR AGONISTS” (priority 2021, published 2024):
Read-outs that look alike come from different tables or passages of the source.

Legend:
5-HT2A receptor = target: T1, 5-HT2A receptor (Homo sapiens, UniProt P28223); assay: 5-HT2A radioligand binding with [3H]ketanserin
T1 construct: WuXi AppTec (Hong Kong) Limited (contract laboratory that ran the assay)
Experimental: The binding affinities of key peripheral 5-HT2A receptor antagonists, as well as reference 5-HT2A agonists, at the ketanserin binding site of the 5-HT2A receptor and the mesulergine binding site of the 5-HT2C receptor were determined in radioligand binding experiments.
Method. Affinity of the test compounds for the 5-HT2A and 5-HT2C receptors was determined in radioligand binding experiments with [^3H] ketanserin and [^3H] mesulergine, respectively, by WuXi AppTec (Hong Kong) Limited, using methods adapted from the literature and under conditions described in Table 1.

5-HT2C receptor = target: T2, 5-HT2C receptor (Homo sapiens, UniProt P28335); assay: biochemical; assay type: binding
T2 construct: WuXi AppTec (Hong Kong) Limited (contract laboratory that ran the assay)
T2 sequence (P28335 33-458): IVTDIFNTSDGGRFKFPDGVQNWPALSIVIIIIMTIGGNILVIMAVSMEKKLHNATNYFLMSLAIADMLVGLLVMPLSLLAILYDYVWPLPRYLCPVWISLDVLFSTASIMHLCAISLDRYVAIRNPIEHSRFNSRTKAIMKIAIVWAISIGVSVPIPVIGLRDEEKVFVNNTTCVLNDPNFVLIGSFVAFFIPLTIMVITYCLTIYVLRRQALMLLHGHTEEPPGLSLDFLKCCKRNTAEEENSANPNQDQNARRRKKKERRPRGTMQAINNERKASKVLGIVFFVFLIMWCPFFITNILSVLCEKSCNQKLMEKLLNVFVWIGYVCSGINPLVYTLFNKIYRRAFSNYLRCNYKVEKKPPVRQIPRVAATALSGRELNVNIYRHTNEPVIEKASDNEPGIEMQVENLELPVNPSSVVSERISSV

Rat plasma stability = assay type: in vitro ADME; settings: Method 2: 5 μM, 37° C.
Experimental: The results were used to confirm that the plasma protein binding results were not confounded by poor plasma stability.
Method 1. […] Plasma was centrifuged at 4,000 rpm for 5 min and any clots were remove.
Method 2. […]

in vitro [1] = assay: in vitro
Experimental: Method 1. Aliquots of 50 μL loading matrix containing test compound (2 μM final incubation concentration) or control compound in triplicate were transferred to a Sample Collection Plate. The samples were matched with opposite blank buffer to obtain a final volume of 100 μL, with a volume ratio of matrix: Dialysis Buffer of 1:1 (v:v) in each well. Stop solution (200 ng/ml tolbutamide and 200 ng/mL labetalol in ACN) was added to these TO samples of test compound and control compound. The plate was sealed and shaken at 800 rpm for 10 min. An aliquot of 100 μL of the loading matrix containing test compound or control compound was transferred to the donor side of each dialysis well in triplicate and 100 μL of the Dialysis Buffer was loaded to the receiver side of the well. Then the plate was rotated at approximately 100 rpm in a humidified incubator with 5% CO2 at 37±1° C. for 4 hours. At the end of the dialysis, aliquots of 50 μL samples from the buffer side and matrix side of the dialysis device were taken into new 96-well plates (Sample Collection Plates). An equal volume of opposite blank matrix (buffer or matrix) in each sample was added to reach a final volume of 100 μL, with volume ratio of matrix: Dialysis Buffer of 1:1 (v:v) in each well. All samples were further processed by protein precipitation before LC-MS/MS analysis.
Method 2. Aliquots (200 μL) of positive controls and test compounds at 5 μM (triplicates) were separately added to the plasma chamber and […] of phosphate buffered saline (pH 7.4) was added to the buffer chamber of the inserts. After sealing the rapid equilibrium dialysis (RED) device with an adhesive film, dialysis was performed in an incubator at 37° C. with shaking at 100 RPM for 4 hours. Aliquots (50 μL) of warfarin and test compounds were added to four 0.5 mL micro fuse tubes. Two aliquots were frozen immediately (0-minute sample). The other two aliquots were incubated at 37° C. for 4 hours along with the RED device. Following dialysis, an aliquot of 50 μL was removed from each well (both plasma and buffer side) and diluted with an equal volume of opposite matrix (dialyzed with the other matrix) to nullify the matrix effect. Similarly, 50 μL of buffer was added to recovery and stability samples. An aliquot of 100 μL was used for LC-MS/MS analysis following protein precipitation with ACN containing internal standard.

[2] = Method 2: 3 times diluted homogenate, 37° C.
Experimental: Method 1. Pooled frozen rat brain homogenate was thawed in a water bath at 37° C. prior to the experiment. Using an Apricot automation workstation, 98 μL/well of blank brain homogenate or 100 mM PBS were added to all 96-well reaction plates (Blank, T0, T10, T30, T60, and T120). […] All reaction plates containing mixtures of compound and brain homogenate were incubated at 37° C. in a water bath for up to 120 minutes. At the end of incubation, 500 uL of stop solution (200 ng/mL tolbutamide and 200 ng/mL labetalol in ACN) was added to precipitate protein and mixed thoroughly for 20 minutes at 4° C. After centrifugation at 4,000 rpm and 4° C. for 20 minutes, an Apricot automation workstation was used to transfer 150 μL of supernatant from each reaction plate to its corresponding bioanaylsis plate, which was shaken for 10 minutes prior to LC-MS/MS analysis.
Method 2. Rat brain tissue homogenate samples were prepared by diluting one volume of whole rat brain tissue with two volumes of dialysis buffer (phosphate buffered saline pH 7.4-0.1 M sodium phosphate and 0.15 M sodium chloride) to yield 3 times diluted homogenate. Test compounds were spiked into 400 μL aliquots (n=3) of rat brain homogenate and the resulting mixtures were incubated at 37° C. […] An aliquot (100 μL) of each sample was transferred to a 96-well deep plate and analyzed by LC-MS/MS.

in vitro [3] = assay: in vitro; set-up: fraction unbound at 4 h: dose or concentration left out as unconfirmed; settings: rat, brain homogenate
Experimental: Various putative peripheral 5-HT2A receptor antagonists were tested for binding to rat brain homogenate via equilibrium dialysis, with the results summarized in Table 7.
Method 1. Rat brain homogenate was thawed in a water bath at room temperature and then incubated at 37° C. for 10 min before use. Aliquots of 50 μL of loading matrix containing test compound (2 μM final incubation concentration) or control compound in triplicate were transferred to a Sample Collection Plate. The samples were matched with opposite blank buffer to obtain a final volume of 100 μL with a volume ratio of matrix: Dialysis Buffer of 1:1 (v:v) in each well. The stop solution (200 ng/mL tolbutamide and 200 ng/ml labetalol in ACN) was immediately added to these T0 samples of test compound and control compound. The plate was sealed and shaken at 800 rpm for 10 min. T0 samples were stored at 2-8° C. pending further processing along with other post-dialysis samples. An aliquot of 100 μL of the loading matrix containing test compound or control compound was transferred to the donor side of each dialysis well in triplicate and 100 μL of the Dialysis Buffer was loaded to the receiver side of the well. Then the plate was rotated at approximately 100 rpm in a humidified incubator with 5% CO2 at 37±1° C. for 4 hours. At the end of the dialysis. aliquots of 50 μL from the buffer side and matrix side of the dialysis device were taken into new 96-well plates (Sample Collection Plates). An equal volume of opposite blank matrix (buffer or matrix) in each sample was added to reach a final volume of 100 μL, with a volume ratio of matrix: Dialysis Buffer of 1:1 (v:v) in each well. All samples were further processed by protein precipitation before LC-MS/MS analysis.
Method 2. Aliquots (200 μL) of test compounds and positive controls at […] in rat brain homogenate (triplicates) were added to the rapid equilibrium dialysis (RED) chamber of dialysis inserts. A 350 μL aliquot of dialysis buffer was added to the buffer chamber of the inserts. After sealing the RED device with an adhesive film, dialysis was conducted at 37° C. with shaking at 100 RPM for 4 hours. Following dialysis, an aliquot of 50 μL was removed from each well (brain homogenate and buffer) and diluted with an equal volume of opposite matrix to nullify the matrix effect. Similarly, buffer was added to recovery and stability samples. An aliquot of 100 μL was used for LC-MS/MS analysis following protein precipitation with ACN containing internal standard.

in vivo [4] = settings: metabolite after 10 mg/kg SC of parent (sarpogrelate or Compound 14a)
Experimental: The pharmacokinetics of peripheral 5-HT2A antagonists were studied in the plasma (Tables 11 and 12) and brains (Table 13 and 14) of rats after subcutaneous (SC) dosing. The results were used to interpret the in vivo pharmacological results.
Animals. Male Sprague Dawley rats, aged 8-12 weeks. were used in these studies. Four rats were housed in each cage. […] Temperature and humidity were recorded by an auto-controlled data logger system. All animals were provided laboratory rodent diet and were fasted for 4 h pre-dose and 2 h post-dose. Reverse osmosis water treated with ultraviolet light was provided ad libitum. Animals were randomly assigned to treatment groups.
Drugs and Drug Administration. Test compounds were prepared as described above or commercially obtained. They were administered subcutaneously (SC) at a dose of 1 or 10 mg/kg (as indicated, calculated based on the free base) and at a volume of 5 mL/kg body weight.
Sample Collection and Bioanalysis. […] SC. […] For both studies, immediately after blood collection, plasma was harvested by centrifugation at 4,000 rpm for 10 min at 4° C. and samples were stored at −70±10° C. until bioanalysis. Following blood collection, animals were immediately sacrificed, the abdominal vena-cava was cut open, and the whole body was perfused from the heart using 10 mL of normal saline, and brain samples were collected from all animals. After isolation, brain samples were rinsed three times in ice-cold normal saline (for 5-10 seconds/rinse using ˜5-10 mL normal saline in disposable petri dish for each rinse) and dried on blotting paper. Brain samples were homogenized using ice-cold phosphate-buffered saline (pH 7.4). Total homogenate volume was three times the tissue weight. All homogenates were stored at −70±10° C. until bioanalysis. For bioanalysis, 25 μL aliquots of plasma/brain study samples or spiked plasma/brain calibration standards were added to individual pre-labeled micro-centrifuge tubes followed by 100 μL of an internal standard solution (glipizide, 500 ng/ml in acetonitrile) except for blanks, where 100 μL of acetonitrile was added. Samples were vortexed for 5 minutes and then centrifuged for 10 minutes at 4,000 rpm at 4° C. Following centrifugation, 100 μL of each clear supernatant was transferred to a 96-well plate and analyzed with a fit-for-purpose LC-MS/MS method, with authentic samples of each analyte used for calibration and identification.

in vivo [5] = assay type: in vivo, rat
Experimental: The ratio of free brain concentration to free plasma concentration was calculated at 0.167 h and 0.5 h post administration for each compound using the data presented in the above examples and the following formula.
A smaller value for the free brain: free plasma ratio indicates greater peripheral restriction and therefore, better suitability for the methods of the present disclosure.

[6] = HEK293 stable cell line, 2 nM [3H]mesulergine, 1 h, 25° C., read-out: 5-HT2C Ki (nM) ([3H]mesulergine)
[7] = HEK293 stable cell line, 1 nM [3H]ketanserin, 1 h, 25° C., read-out: 5-HT2A Ki (nM) ([3H]ketanserin)
[8] = 10 mg/kg PK data, quantified as metabolite in PK studies of sarpogrelate and Compound 14a

T1 sequence (P28223 whole entry): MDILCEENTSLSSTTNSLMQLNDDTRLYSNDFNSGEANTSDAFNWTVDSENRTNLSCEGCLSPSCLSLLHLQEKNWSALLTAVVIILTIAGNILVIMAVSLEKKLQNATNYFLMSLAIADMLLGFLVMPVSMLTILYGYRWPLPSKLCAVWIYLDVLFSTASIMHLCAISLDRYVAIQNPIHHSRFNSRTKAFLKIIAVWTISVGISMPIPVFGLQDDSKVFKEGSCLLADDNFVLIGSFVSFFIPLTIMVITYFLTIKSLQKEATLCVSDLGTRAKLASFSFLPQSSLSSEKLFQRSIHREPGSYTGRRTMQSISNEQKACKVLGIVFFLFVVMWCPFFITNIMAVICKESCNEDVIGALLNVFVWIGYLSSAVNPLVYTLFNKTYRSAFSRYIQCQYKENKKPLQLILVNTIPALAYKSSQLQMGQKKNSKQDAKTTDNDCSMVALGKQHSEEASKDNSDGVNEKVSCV

For `CCN(C)CCc1c[nH]c2cccc(O)c12` [Compound 4-HO-MET, 4-hydroxy-N-methyl-N-ethyltryptamine], the Ki (5-HT2A receptor) was 106 nM.

With `CCN(C)CCc1c[nH]c2ccc(F)cc12` [Compound 5-F-MET, 5-fluoro-N-methyl-N-ethyltryptamine] the Ki (5-HT2A receptor) was 140 nM and the Ki (5-HT2C receptor; [6]) was 59 nM.

For `CC(C)COc1ccc(CNC(=O)N(Cc2ccc(F)cc2)C2CCNCC2)cc1.Cl` [Compound 7, 1-(4-fluorobenzyl)-3-(4-isobutoxybenzyl)-1-(piperidin-4-yl)urea hydrochloride], the “% Remaining (120 minutes), rat plasma” value (Rat plasma stability) was 96%, the fraction unbound at 4 h, 5 μM (in vitro [1]; rat, plasma, pH 7.4) was 0.038 and the “% Remaining (120 minutes), rat brain homogenate” value [2] was 69%. The fraction unbound at 4 h (in vitro [3]) was 0.002, the “Mean brain concentration 0.167 h (ng/g), analyzed as metabolite” value (in vivo [4]; 0.167 h) was “BLQ” and the “Mean brain concentration 0.5 h (ng/g), analyzed as metabolite” value (in vivo [4]; 0.5 h) was “BLQ”.

`COc1cc(CC(C)N)c(OC)cc1I` (stereo not drawn) [DOI, 4-iodo-2,5-dimethoxyamphetamine] gave a Ki (5-HT2C receptor) of 70 nM.

With `CCCc1cc(OC)c(CC(C)N)cc1OC` (stereo not drawn) [DOPR, 2,5-dimethoxy-4-propylamphetamine] the Ki (5-HT2A receptor; [7]) was 17.6 nM and the Ki (5-HT2C receptor; [6]) was 16.6 nM.

For `COc1cc(CCN)cc(OC)c1OC` [mescaline], the Ki (5-HT2A receptor; [7]) was 17400 nM and the Ki (5-HT2C receptor; [6]) was over 1880 nM.

For `COc1cccc(CCc2ccccc2OCC(O)CN(C)C)c1` (stereo not drawn) [sarpogrelate M1], the “% Remaining (120 minutes), rat plasma” value (Rat plasma stability) was 94%, the “Mean % bound (rat plasma protein binding)” value (in vitro [1]; Method 2: RED, 5 μM, 4 hours, 37° C.) was 97.2% and the “% Remaining (120 minutes), rat brain homogenate” value [2] was 84%. For the same compound, the “Free Brain:Free Plasma (0.167 h), metabolite” value (in vivo [5]; [8]) was 0.52, the “Free Brain:Free Plasma (0.5 h), metabolite” value (in vivo [5]; [8]) was 1.31 and the “Peripheral restriction / brain penetration” value (in vivo [5]; from free brain:free plasma ratios) was “substantial brain penetration”. For the same compound, the “Mean brain concentration 0.167 h (ng/g), analyzed as metabolite” value (in vivo [4]; 0.167 h) was 32.7 ng/g, the “Mean brain concentration 0.5 h (ng/g), analyzed as metabolite” value (in vivo [4]; 0.5 h) was 97.4 ng/g and the “Mean plasma concentration 0.167 h (ng/mL), analyzed as metabolite” value (in vivo [4]; plasma, 0.167 h) was 54.1 ng/mL. The “Mean plasma concentration 0.5 h (ng/mL), analyzed as metabolite” value (in vivo [4]; plasma, 0.5 h) was 63.6 ng/mL.
